Laboratory results: patent US6756384B2, “Imidazole compounds” (Novo Nordisk A/S, priority 2000, dated 2004)
Where a name gives a salt, the structure may show the parent alone.

Structure (SMILES)	melting point [°C]
O=C(NCc1c(Cl)cccc1Oc1ccccc1)C1CCc2[nH]cnc2C1 (centres unmarked) [Example 22, 4,5,6,7-Tetrahydro-1H-benzimidazole-5-carboxylic Acid N-(2-Chloro-6-phenoxy-benzyl)amide]	197 to 199
Cl.O=C(NCc1cccc2ccccc12)C1CCc2[nH]cnc2C1 (centres unmarked)	142 to 144
O=C(NCc1ccccc1)C1CCc2[nH]cnc2C1.O=C(O)C(=O)O (centres unmarked)	130 to 132
Cl.O=C(NCCCc1ccc(Cl)cc1)C1CCc2[nH]cnc2C1 (centres unmarked)	146 to 148
C[C@@H](NC(=O)C1CCc2[nH]cnc2C1)c1cccc2ccccc12.Cl (some centres unmarked)	84 to 85
CN(Cc1ccccc1)C(=O)C1CCCc2[nH]cnc21 (centres unmarked) (as salt: hydrochloride) [Example 90, 4,5,6,7-Tetrahydro-1H-benzimidazole-4-carboxylic acid benzylmethylamide]	211 to 213
O=C(NCc1ccccc1Cl)C1CCCc2[nH]cnc21 (centres unmarked) (as salt: hydrochloride) [Example 89, 4,5,6,7-Tetrahydro-1H-benzimidazole-4-carboxylic acid 2-chlorobenzylamide]	165 to 167
O=C(NCCc1ccccc1)C1CCCc2[nH]cnc21 (centres unmarked) (as salt: hydrochloride) [Example 91, 4,5,6,7-Tetrahydro-1H-benzimidazole-4-carboxylic acid phenethylamide]	177 to 179
C[C@H](NC(=O)C1CCc2[nH]cnc2C1)c1cccc2ccccc12 (some centres unmarked) [Example 1]	158 to 160
O=C(NCCc1ccccc1)C1CCc2[nH]cnc2C1.O=C(O)C(=O)O (centres unmarked)	197 to 199
Cl.O=C(Cc1ccc(Cl)cc1)NC1CCc2[nH]cnc2C1 (centres unmarked)	222 to 224
